Test results from patent US20240393340A1, “PROGNOSIS AND PREDICTIVE BIOMARKERS AND BIOLOGICAL APPLICATIONS THEREOF” (INSTITUT GUSTAVE ROUSSY, priority 2013, published 2024).

What was measured:
Format in all cases: cell-based
Mel624 = experiment: Short-term growth-inhibition assay (Example 1)
Method: (§1) FIGS. 1A-1B: Short-term growth-inhibition assay of a panel of melanoma cell lines including BRAF (V600E) cell lines and an NRAS (Q61R) mutated cell line. FIG. 1A. Cells were treated with increasing concentrations of N-[3-[(5-Chloro-1H-pyrrolo[2,3-b]pyridin-3-yl)carbonyl]-2,4-difluorophenyl]-1-propanesulfonamide (PLX-4720) for 72 h and cell viability was determined using CellTiter-Blue by measuring the absorbance at 540 nm in a microplate reader. Error bars show data +standard error. Means were derived from four replicates (n=4). FIG. 1B. Long-term colony formation assay of the indicated cells. Cells were grown in the absence or presence of PLX-4720 at the indicated concentrations for 15-20 days. For each cell line, all dishes were fixed at the same time, stained and photographed. […]
(§2) The inventors quantified the effect of exposing these cell lines to PLX-4720 on the half-maximum inhibitory concentration (IC50) (Table 1).

A2058 = experiment: Short-term growth-inhibition assay (Example 1)
Method: as §1, §2

[1] = tested on: eIF4E-eIF4G and eIF4E-4EBP1 interactions; experiment: Proximity ligation assay in cell lines
Description: FIGS. 4A-4B: The interactions between eIF4E and eIG4G (“Cap-ON”) and between […] (“Cap-OFF” interaction) are (FIG. 4A) visualized by the PLA technique and (FIG. 4B) quantified (number of points per 100 nucleus) using ImageJ for the indicated cell lines and treatments.
FIGS. 5A-5C: The interactions between eIF4E and eIF4G (“Cap-ON”) and between […] (“Cap-OFF” interaction) are (FIG. 5A) visualized by the PLA technique and (FIG. 5B) quantified (number of points per 100 nucleus) using ImageJ for the indicated cell lines and treatments. (FIG. 5C) Cells were treated with increasing concentrations of PLX-4720 for 72 h, and cell viability was determined using CellTiter-Blue by measuring the absorbance at 540 nm in a microplate reader. Error bars show datatstandard error. Means were derived from four replicates (n=4).
FIGS. 9A-9B: The formation of the eIF4F translation initiation complex is associated with resistance to anti-BRAF inhibitors. FIG. 9A: Quantification of the proximity ligation assay showing the number of red spots (corresponding to the interactions between eIF4E-elF4G or eIF4E-4EBP1) per 100 nuclei (quantified with the Volocity software). Data are means±s.d. (n=3). Significance determined by Mann-Whitney U test (*P<0.05, **P<0.01). FIG. 9B: The eIF4E-eIF4G and eIF4E-4EBP1 interactions detected by in situ proximity ligation assay in vemurafenib (6 μM)-treated (24 h) or untreated HT29 colon cancer cell line and BCPAP thyroid cancer cell line respectively. The interactions were visualised as red fluorescent spots by the scanner Olympus VS120. Cell nuclei were stained with DAPI (blue).
Proximity ligation assays (PLAs) were performed on both fixed and permeabilized transfected cell lines in chamber slides and TMA slides containing melanoma tissue. Following dewaxing and rehydrating of tissue sections, antigen retrieval was performed by heating the slides for 30 min at 95° C. in TE buffer, pH 9. […] The number of in situ PLA signals per cell was counted by semi-automated image analysis. […]

eIF4F complex = experiment: Cap binding assay (m7GTP-Sepharose beads)
Method: FIG. 3: Examination of eIF4F complex formation by the “cap binding assay” in the indicated cell lines. Eluates from the beads (m7G-bound) and total extracts (input) were analyzed on 4% to 12% gradient gel electrophoresis, followed by Western blotting with the indicated antibodies.
Cells were grown for 48 h in 10% Fetal Bovine Serum (FBS) followed by 24 h without FBS. Cells were subsequently grown for 12 h in the absence or the presence of trastuzumab. Cells were harvested and lysed in ice-cold lysis buffer (KCl 150 mM, Hepes pH 7.5 50 mM, DTT 2 mM, Tween 20 0.2%, and Complete Protease Inhibitor Cocktail from Roche). Cell lysates were incubated with 7-methyl-GTP-sepharose 4B beads (Amersham Biosciences) for 2 h at 4° C. Eluates from the beads (7 mG-bound) and total extracts (Tot.) were analyzed on 4-12% gradient gel electrophoresis followed by western blot. Experiments were repeated at least 4 times.
In a so-called “cap binding assay”, synthetic m7GTP-Sepharose beads were used to capture eIF4E and its binding partners, eIF4G (called Cap-ON complex) and 4EBP1 (called Cap-OFF complex). The inventors observed that following PLX-4720 treatment, the amount of eIF4E-bound 4EBP1 (Cap-OFF complex) was increased, whereas the quantity of eIF4E-bound eIF4G (Cap-ON complex), i.e. the formation of the active eIF4F complex, was decreased in the two PLX-4720-sensitive cell lines (A375, Mel888) (FIG. 3). In contrast, and consistent with the inventors' hypothesis, the formation of the eIF4F complex was unchanged in the two cell lines (Mel624, A2058) with less sensitivity to PLX-4720.

[2] = sensitive cell lines A375, Mel888, treated vs untreated
[3] = sensitive cell lines A375, Mel888

## CCCS(=O)(=O)Nc1ccc(F)c(C(=O)c2c[nH]c3ncc(Cl)cc23)c1F [PLX-4720, N-[3-[(5-Chloro-1H-pyrrolo[2,3-b]pyridin-3-yl)carbonyl]-2,4-difluorophenyl]-1-propanesulfonamide]
Mel624; Mel624, short-term and long-term proliferation assays, Example 1
  sensitivity of the cell line compared to the other BRAF (V600E)-mutated melanoma cell lines: less sensitive
Mel624; Mel624 cell line, read-out: half-maximum inhibitory concentration (IC50)
  IC50: 4.4 µM
A2058; A2058, short-term and long-term proliferation assays, Example 1
  sensitivity of the cell line compared to the other BRAF (V600E)-mutated melanoma cell lines: less sensitive
A2058; Homo sapiens, A2058 cell line, read-out: half-maximum inhibitory concentration (IC50)
  IC50: 2.4 µM
[1]; less sensitive / resistant cell lines Mel624, A2058
  Cap-ON and Cap-OFF interaction: didn't affect
[1]; [2]
  eIF4E-4EBP1 (Cap-OFF) interaction: increase
  eIF4E-eIF4G (Cap-ON) interaction: reduced signal counts
eIF4F complex; less sensitive cell lines Mel624, A2058
  formation / disruption of the eIF4F (eIF4E-eIF4G) complex: unchanged
eIF4F complex; [3]
  amount of eIF4E-bound 4EBP1 (Cap-OFF complex): increased
  quantity of eIF4E-bound eIF4G (Cap-ON complex): decreased
